pIC50: −log10 of the molar value.
Assays:
[1] = biological target: T1, hPPARα (Homo sapiens, UniProt Q07869); test: Gal4-hPPARα chimera transactivation in COS-7 cells (luciferase); assay type: cell-based; conditions: induction factor standardised to an internal reference, read-out: % hGal4-PPAR transactivation (10 μM) alpha
T1 construct: fragments of DNA amplified by PCR corresponding to the DEF domains of the human PPARα, PPARγ PPARδ nuclear receptors; expressed in transfected cells; host or cells: COS-7 (monkey kidney fibroblast line)
T1 sequence (Q07869 239-466 limits assumed): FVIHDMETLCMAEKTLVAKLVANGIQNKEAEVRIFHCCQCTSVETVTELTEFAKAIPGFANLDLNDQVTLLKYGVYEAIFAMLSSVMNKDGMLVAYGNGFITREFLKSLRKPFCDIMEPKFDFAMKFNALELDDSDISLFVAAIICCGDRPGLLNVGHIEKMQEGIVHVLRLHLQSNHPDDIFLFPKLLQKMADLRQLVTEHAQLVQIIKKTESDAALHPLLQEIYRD
Protocol: (§1) The PPAR activation was evaluated in vitro on a monkey kidney fibroblast line (COS-7) by measuring the transcriptional activity of chimeras constituted of the DNA binding domain of the Gal4 transcription factor of yeast and of the binding domain to the ligand of the different PPARs. The compounds were tested at doses between 0.01 and 100 μM on Gal4-PPARα, γ, δ chimeras. The induction factor (ratio between the luminescence induced by the compound and the luminescence induced by the control) was measured for each condition: the higher this factor, the more the compound has PPAR-activating properties.
(§2) The COS-7 cells from ATCC were cultivated in a DMEM medium supplemented with 10% (vol/vol) of foetal calf serum, 100 U/ml penicillin (Gibco, Paisley, UK) and 2 mM L-Glutamine (Gibco, Paisley, UK). The cells were incubated at 37° C. in a humid atmosphere containing 5% CO2.
(§3) The Gal4(RE)_TkpGL3, pGal4-hPPARα, pGal4-hPPARγ, pGal4-hPPARδ and pGal4-φ plasmids have been described in the literature (Raspe, Madsen et al. 1999). The pGal4-hPPARα, pGal4-hPPARγ and pGal4-hPPARδ constructs were obtained by cloning in the pGal4-φ vector of fragments of DNA amplified by PCR corresponding to the DEF domains of the human PPARα, PPARγ PPARδ nuclear receptors.
(§4) COS-7 cells were plated in 96 wells plates (5×10^4 cells/well) and transfected, in the presence of 10% foetal calf serum and 150 ng DNA per well, with a pGal4-PPAR/Gal4(RE)_TkpGL3 ratio of 1/10. The cells were then incubated for 24 hours with the compounds to be tested, without serum. At the end of the experiment, the cells were lysed and the luciferase activities were determined by means of Steady Glow Luciferase (Promega) according to the supplier's recommendations.
(§5) The inventive compounds were tested at 10 μM on the 3 PPAR isoforms. The results obtained are detailed in table (1). The transactivation measured is expressed as a response ratio versus an internal reference for each of the isoforms.
(§6) The compounds were tested at 10 μM on the Gal4-PPARα, γ, δ chimeras. The induction factor, i.e. the ratio between the luminescence induced by the compound and the luminescence induced by the control, was measured for each condition. It was then standardised in comparison to an internal reference and the results were then expressed in percentages : the higher the activation percentage, the more the compound has PPAR-activating properties.

[2] = biological target: T2, hPPARδ (Homo sapiens, UniProt Q03181); test: Gal4-hPPARδ chimera transactivation in COS-7 cells (luciferase); assay type: cell-based; conditions: induction factor standardised to an internal reference, read-out: % hGal4-PPAR transactivation (10 μM) delta
T2 construct: fragments of DNA amplified by PCR corresponding to the DEF domains of the human PPARα, PPARγ PPARδ nuclear receptors; expressed in transfected cells; host or cells: COS-7 (monkey kidney fibroblast line)
T2 sequence (Q03181 211-439 limits assumed): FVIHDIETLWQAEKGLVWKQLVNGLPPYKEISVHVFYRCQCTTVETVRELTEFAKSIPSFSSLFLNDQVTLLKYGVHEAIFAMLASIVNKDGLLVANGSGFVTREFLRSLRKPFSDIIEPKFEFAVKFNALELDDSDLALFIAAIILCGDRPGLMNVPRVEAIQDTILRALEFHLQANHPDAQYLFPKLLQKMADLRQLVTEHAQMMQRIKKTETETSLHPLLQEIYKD
Protocol: as §1, §2, §3, §4, §5, §6

[3] = biological target: T3, hPPARγ (Homo sapiens, UniProt P37231); test: Gal4-hPPARγ chimera transactivation in COS-7 cells (luciferase); assay type: cell-based; conditions: induction factor standardised to an internal reference, read-out: % hGal4-PPAR transactivation (10 μM) gamma
T3 construct: fragments of DNA amplified by PCR corresponding to the DEF domains of the human PPARα, PPARγ PPARδ nuclear receptors; expressed in transfected cells; host or cells: COS-7 (monkey kidney fibroblast line)
T3 sequence (P37231 238-503 limits assumed): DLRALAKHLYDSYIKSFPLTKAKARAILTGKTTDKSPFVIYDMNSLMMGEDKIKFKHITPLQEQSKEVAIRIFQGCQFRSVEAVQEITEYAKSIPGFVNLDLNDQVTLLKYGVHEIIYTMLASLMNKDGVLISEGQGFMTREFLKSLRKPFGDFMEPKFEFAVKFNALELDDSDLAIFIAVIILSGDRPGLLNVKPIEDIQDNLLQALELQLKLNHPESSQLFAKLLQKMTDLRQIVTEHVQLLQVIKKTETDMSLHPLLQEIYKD
Protocol: as §1, §2, §3, §4, §5, §6

[4] = biological target: T4, ATP-dependent potassium channels (K+ATP) (Rattus norvegicus, UniProt Q09429); test: [3H]glibenclamide binding to ATP-dependent potassium channels of rat cerebral cortex; conditions: for inhibition at 0.3 µM: 1 h, 300 nM, specific displacement of [3H]glibenclamide 0.1 nM, read-out: KATP binding (300 nM)
T4 construct: the potassium channels derive from a rat's cerebral cortex; tissue CEREP; host or cells: rat cerebral cortex
Protocol: The results shown reflect the specific affinity of the inventive compounds on the ATP-dependent (K^+ATP) potassium channels. The specific binding measured corresponds to the difference between the total binding and the non-specific binding determined in the presence of an excess of non-marked reference ligand (glibenclamide 1 μM). The inventive compounds were tested at doses between 3 and 300 nM: the higher the percentage measured, the stronger the affinity of the compound for the ATP-dependent potassium channels.
The binding test was carried out at CEREP (Celle L'Evescault, France (86)) according to a protocol inspired by Angel et al. (Angel and Bidet 1991): the potassium channels derive from a rat's cerebral cortex and the reference compound is [^3H]glibenclamide at 0.1 nM. The protocol consists of incubation at 22° C. for one hour.

T4 sequence (Q09429 whole entry): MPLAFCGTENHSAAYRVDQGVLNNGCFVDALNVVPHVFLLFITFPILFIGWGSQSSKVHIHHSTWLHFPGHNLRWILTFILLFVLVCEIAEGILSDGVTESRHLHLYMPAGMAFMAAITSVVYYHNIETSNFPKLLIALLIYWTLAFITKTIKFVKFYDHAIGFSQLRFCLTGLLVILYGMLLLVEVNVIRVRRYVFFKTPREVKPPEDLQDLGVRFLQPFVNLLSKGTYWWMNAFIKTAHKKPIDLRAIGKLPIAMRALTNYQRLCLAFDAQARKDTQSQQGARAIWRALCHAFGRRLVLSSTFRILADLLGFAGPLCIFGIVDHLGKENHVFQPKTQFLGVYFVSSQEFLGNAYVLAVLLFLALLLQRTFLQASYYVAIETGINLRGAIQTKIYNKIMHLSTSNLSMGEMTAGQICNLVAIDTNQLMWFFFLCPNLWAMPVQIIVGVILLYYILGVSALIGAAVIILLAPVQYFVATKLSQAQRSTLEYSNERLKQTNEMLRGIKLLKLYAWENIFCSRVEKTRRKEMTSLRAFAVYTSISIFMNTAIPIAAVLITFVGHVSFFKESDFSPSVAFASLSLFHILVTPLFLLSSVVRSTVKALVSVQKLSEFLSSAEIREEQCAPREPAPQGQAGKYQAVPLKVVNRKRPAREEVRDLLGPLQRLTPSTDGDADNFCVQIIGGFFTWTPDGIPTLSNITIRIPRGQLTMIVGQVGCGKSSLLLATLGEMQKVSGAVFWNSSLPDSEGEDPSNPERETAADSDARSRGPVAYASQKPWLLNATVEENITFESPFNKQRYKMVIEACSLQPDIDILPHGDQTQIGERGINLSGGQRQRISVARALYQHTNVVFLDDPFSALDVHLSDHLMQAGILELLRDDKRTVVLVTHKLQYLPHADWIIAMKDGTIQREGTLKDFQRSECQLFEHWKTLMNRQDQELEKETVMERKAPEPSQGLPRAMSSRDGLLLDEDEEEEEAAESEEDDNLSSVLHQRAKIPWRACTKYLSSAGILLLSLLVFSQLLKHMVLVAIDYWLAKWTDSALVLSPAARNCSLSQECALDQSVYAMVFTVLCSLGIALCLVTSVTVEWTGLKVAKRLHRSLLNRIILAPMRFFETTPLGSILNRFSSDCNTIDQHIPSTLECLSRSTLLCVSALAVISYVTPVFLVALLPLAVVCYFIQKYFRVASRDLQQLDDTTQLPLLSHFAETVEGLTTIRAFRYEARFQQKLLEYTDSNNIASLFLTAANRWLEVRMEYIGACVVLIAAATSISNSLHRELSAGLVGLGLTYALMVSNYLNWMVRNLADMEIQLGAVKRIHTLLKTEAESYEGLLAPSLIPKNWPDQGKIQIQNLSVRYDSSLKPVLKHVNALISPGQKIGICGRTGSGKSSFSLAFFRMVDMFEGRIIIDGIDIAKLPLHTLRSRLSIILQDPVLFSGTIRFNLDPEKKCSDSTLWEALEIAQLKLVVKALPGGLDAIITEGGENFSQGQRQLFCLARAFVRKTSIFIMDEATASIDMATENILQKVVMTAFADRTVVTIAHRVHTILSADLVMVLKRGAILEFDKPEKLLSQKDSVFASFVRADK
T4 sequence (P70673 whole entry partner): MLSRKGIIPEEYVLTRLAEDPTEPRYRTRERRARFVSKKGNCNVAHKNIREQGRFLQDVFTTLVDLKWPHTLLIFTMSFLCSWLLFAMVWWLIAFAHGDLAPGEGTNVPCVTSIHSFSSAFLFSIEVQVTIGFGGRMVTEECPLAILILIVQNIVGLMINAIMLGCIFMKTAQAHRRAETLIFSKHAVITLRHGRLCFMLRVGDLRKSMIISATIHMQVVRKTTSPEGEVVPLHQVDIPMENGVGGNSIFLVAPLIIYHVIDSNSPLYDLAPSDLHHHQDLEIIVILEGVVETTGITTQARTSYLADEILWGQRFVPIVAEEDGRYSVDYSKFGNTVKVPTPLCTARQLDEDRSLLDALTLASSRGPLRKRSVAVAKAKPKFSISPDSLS

Row | SMILES | activation at 10 µM [1] [%] | activation at 10 µM [2] [%] | activation at 10 µM [3] [%] | inhibition at 0.3 µM [4] [%] | pIC50 ([4]; FIG. 2)
1 | CC(C)CC(NC(=O)Cc1ccc(OC(C)(C)C(=O)NS(=O)(=O)C(F)(F)F)cc1)c1ccccc1N1CCCCC1 (stereo not drawn) [Compound 59, N-[trifluoromethylsulfonyl]-2-[4-[1-(3-methyl-1-(2-(1-piperidinyl)phenyl)butyl)aminocarbonylmethyl]phenoxy]-2-methylpropanamide] | 22 | < 10 | < 10 | 73 | –
2 | CCCCC(NC(=O)Cc1ccc(OC(C)(C)C(=O)O)cc1)c1ccc(Br)cc1N1CCCCC1 (stereo not drawn) [Compound 33, 2-[4-[1-(1-(2-(1-piperidinyl)-4-(bromo)phenyl)pentyl)aminocarbonylmethyl]phenoxy]-2-methylpropanoic acid] | < 10 | 23 | 42 | 51 | –
3 | CC(C)CC(NC(=O)Cc1ccc(OCCCC(C)(C)C(=O)O)cc1)c1ccccc1N1CCCCC1 (stereo not drawn) [Compound 28, 5-[4-[1-(3-methyl-1-(2-(1-piperidinyl)phenyl)butyl)aminocarbonylmethyl]phenoxy]-2,2-dimethylpentanoic acid] | 35 | < 10 | 17 | 30 | –
4 | CC(C)CC(NC(=O)C(C)c1ccc(OC(C)(C)C(=O)O)cc1)c1ccccc1N1CCCCC1 (stereo not drawn) [Compound 34, 2-[4-[1-methyl-1-[1-(3-methyl-1-(2-(1-piperidinyl)phenyl)butyl)aminocarbonyl]methyl]phenoxy]-2-methylpropanoic acid] | < 10 | < 10 | 30 | 81 | –
5 | CCCCC(NC(=O)Cc1ccc(OC(C)(C)C(=O)NS(=O)(=O)Cc2ccccc2)cc1)c1ccccc1N1CCCCC1 (stereo not drawn) [Compound 63, N-[benzylsulfonyl]-2-[4-[1-(1-(2-(1-piperidinyl)phenyl)pentyl)aminocarbonylmethyl]phenoxy]-2-methylpropanamide] | 26 | < 10 | < 10 | 67 | –
6 | CCCCC(NC(=O)Cc1ccccc1OCCCC(C)(C)C(=O)O)c1ccccc1N1CCCCC1 (stereo not drawn) [Compound 53, 5-[2-[1-(1-(2-(1-piperidinyl)phenyl)pentyl)aminocarbonylmethyl]phenoxy]-2,2-dimethylpentanoic acid] | < 10 | < 10 | 40 | 25 | –
7 | CC(C)(Oc1ccc(CC(=O)NC(Cc2ccccc2)c2ccccc2N2CCCCC2)cc1)C(=O)O (stereo not drawn) [Compound 7, 2-[4-[1-(2-phenyl-1-(2-(1-piperidinyl)phenyl)ethyl)aminocarbonylmethyl]phenoxy]-2-methylpropanoic acid] | 40 | < 10 | 34 | 71 | –
8 | CC(C)CC(NC(=O)Cc1ccc(OC(C)(C)C(=O)NS(=O)(=O)c2ccccc2)cc1)c1ccccc1N1CCCCC1 (stereo not drawn) [Compound 64, N-[phenylsulfonyl]-2-[4-[1-(3-methyl-1-(2-(1-piperidinyl)phenyl)butyl)aminocarbonylmethyl]phenoxy]-2-methylpropanamide] | < 10 | < 10 | 18 | 57 | –
9 | CCCCC(NC(=O)Cc1ccc(OC(C)(C)C(=O)O)cc1)c1ccccc1N1CCCCC1 (stereo not drawn) [Compound 10, 2-[4-[1-(1-(2-(1-piperidinyl)phenyl)pentyl)aminocarbonylmethyl]phenoxy]-2-methylpropanoic acid] | 11 | < 10 | 49 | – | 7.20
10 | CCCCC(NC(=O)Cc1ccc(OC(C)(C)C(=O)O)cc1)c1ccccc1OC (stereo not drawn) [Compound 54, 2-[4-[1-(1-(2-(methoxy)phenyl)pentyl)aminocarbonylmethyl]phenoxy]-2-methylpropanoic acid] | < 10 | < 10 | 30 | 79 | –
11 | CCCC(NC(=O)Cc1ccc(OC(C)(C)C(=O)O)cc1)c1ccccc1N1CCCCC1 (stereo not drawn) [Compound 65, 2-[4-[1-(1-(2-(1-piperidinyl)phenyl)butyl)aminocarbonylmethyl]phenoxy]-2-methylpropanoic acid] | < 10 | < 10 | 50 | 90 | –
12 | Cc1cccc(CC(NC(=O)Cc2ccc(OC(C)(C)C(=O)O)cc2)c2ccccc2N2CCCCC2)c1 (stereo not drawn) [Compound 55, 2-[4-[1-(2-(3-methylphenyl)-1-(2-(1-piperidinyl)phenyl)ethyl)aminocarbonylmethyl]phenoxy]-2-methylpropanoic acid] | < 10 | < 10 | 33 | 27 | –
13 | CC(C)CC(C(=O)NCc1ccc(OC(C)(C)C(=O)O)cc1)c1ccccc1N1CCCCC1 (stereo not drawn) [Compound 32, 2-[4-[1-(3-methyl-1-(2-(1-piperidinyl)phenyl)butyl)carbonylaminomethyl]phenoxy]-2-methylpropanoic acid] | < 10 | < 10 | 25 | 93 | –
14 | CC(C)CC(NC(=O)Cc1ccc(OC(C)(C)C(=O)O)cc1)c1ccc(C(F)(F)F)cc1N1CCCCC1 (stereo not drawn) [Compound 21, 2-[4-[1-(3-methyl-1-(2-(1-piperidinyl)-4-(trifluoromethyl)phenyl)butyl)aminocarbonylmethyl]phenoxy]-2-methylpropanoic acid] | < 10 | 24 | 25 | 68 | –
15 | CC(C)CC(NC(=O)Cc1ccc(OCCCCC(C)(C)C(=O)O)cc1)c1ccccc1N1CCCCC1 (stereo not drawn) [Compound 57, 6-[4-[1-(3-methyl-1-(2-(1-piperidinyl)phenyl)butyl)aminocarbonylmethyl]phenoxy]-2,2-dimethylhexanoic acid] | 29 | < 10 | < 10 | 18 | –
